Data: patent publication US20240376504A1, “ENZYMATIC SYNTHESIS OF MYCOSPORINE-LIKE AMINO ACIDS” (University of Florida Research Foundation, Incorporated, priority 2021, published 2024)

Key:
[1] = system: recombinant His6-tagged MysD; test: MysD reaction, relative activity of amino acid substrates (MG consumption by HPLC); format: biochemical, Nostoc linkia NIES-25; settings: 0.25 μM MysD; L-Thr reaction (8 min) set as 100%; from concentrations of disubstituted MAAs produced
Experimental: The current and previous heterologous expression studies supported the function of MysD in the biosynthesis of disubstituted MAAs (FIG. 3).^29,35 To further characterize its catalytic properties, recombinant His6-tagged MysD of N. linkia NIES-25 was prepared from E. coli after a single affinity purification (FIG. 21). The enzyme reaction was performed with MysD (0.5 μM), MG (50 μM), and L-Thr (1 mM) in the presence of ATP (1 mM) and Mg^2+ (10 mM) at room temperature for 2 h. […] No product was formed in the control reactions without enzyme or ATP (FIG. 5A). The requirement of ATP for the MysD reaction supports its prediction as the D-Ala-D-Ala ligase-like enzyme of the ATP grasp superfamily.^29 The optimal temperature and pH of its reaction were determined at 37° C. and pH=8.5 (FIG. 22). Under these optimal reaction conditions, all 20 natural amino acids were screened (5 mM) along with MG (50 μM) in the MysD reaction. […] LC-HRMS and MS/MS analysis indicated the formation of their corresponding disubstituted MAAs, MG-Ala, MG-Arg (observed [M+H]^+: 402.1977; calculated [M+H]^+: 402.1983), MG-Cys (observed [M+H]^+: 349.1059; calculated [M+H]^+: 349.1064), mycosporine-2-Gly (observed [M+H]^+: 303.1182; calculated [M+H]^+: 303.1187), shinorine, and porphyra-334 (FIGS. 24, 25, and 26). L-Ser and L-Thr led to the complete consumption of MG in the MysD reactions after 3 h, followed by L-Cys. […] Nonetheless, the result of this biochemical study well agreed with the production of porphyra-334 along with small amounts of shinorine and MG-Ala in the above heterologous expression study (FIG. 3C). To further understand MysD's substrate preference, the enzyme concentration was lowered to 0.25 μM. […] The consumed MG level in this reaction was set as 100% to normalize its level in the five other reactions, which was determined from the concentrations of produced disubstituted MAAs in the reactions (FIG. 5C). […] Together, the results of these biochemical studies highlight the broad substrate scope of MysD and its strong preference toward L-Thr in the MAA biosynthesis.
MysD Reaction. […] The quality of MG was calculated based on its reported extinction coefficient (28,100 M^−1 cm^−1). […] The reactions were terminated and then analyzed in the HPLC and/or LC-MS analysis. […] First, the reactions were performed with 0.25 μM MysD for 8 min, which led to no more than 50% consumption of MG into porphyra-334 with the best substrate L-Thr and into shinorine with L-Ser. For the other four amino acids, the levels of their corresponding disubstituted MAAs were determined after the reaction time was elongated to 30 min. […]
HPLC and LC-MS Analysis. Samples were analyzed on a Shimadzu Prominence UHPLC system (Kyoto, Japan) coupled with a PDA detector. […]

[2] = reported value used to calculate MG; cited from earlier work

Compound: C[C@H](N)C(=O)O [L-Ala]
- consumption level of MG in the MysD reaction relative to that with L-Thr [1]: 0.4%

Compound: N[C@@H](CS)C(=O)O [L-Cys]
- consumption level of MG in the MysD reaction relative to that with L-Thr [1]: 0.9%

Compound: N[C@@H](CO)C(=O)O [L-Ser]
- consumption level of MG in the MysD reaction relative to that with L-Thr [1]: about 12.7%

Compound: C[C@@H](O)[C@H](N)C(=O)O [L-Thr]
- consumption level of MG in the MysD reaction relative to that with L-Thr [1]: 100%

Compound: COC1=C(NCC(=O)O)C[C@@](O)(CO)CC1=O [MG, mycosporine-glycine]
- extinction coefficient [2]: 28,100 M^−1 cm^−1
